Blank lines part the entries; values can stand above or below the compound they belong to. Calls of active or inactive are those of the source. The rule behind the calls is not given here.
Columns and labels:
[1] = target: T1, Protein arginine N-methyltransferase 9 (Homo sapiens) (UniProt Q6P2P2); assay: Inhibition of human recombinant PRMT9 using biotinylated SF3B2(500 to 519 residues) as substrate and SAM as cosubstrate pre-incubated with compound for 30 mins followed by substrate addition measured after 60 mins by AlphaLISA assay; settings: time 90.0 min
T1 sequence (whole entry): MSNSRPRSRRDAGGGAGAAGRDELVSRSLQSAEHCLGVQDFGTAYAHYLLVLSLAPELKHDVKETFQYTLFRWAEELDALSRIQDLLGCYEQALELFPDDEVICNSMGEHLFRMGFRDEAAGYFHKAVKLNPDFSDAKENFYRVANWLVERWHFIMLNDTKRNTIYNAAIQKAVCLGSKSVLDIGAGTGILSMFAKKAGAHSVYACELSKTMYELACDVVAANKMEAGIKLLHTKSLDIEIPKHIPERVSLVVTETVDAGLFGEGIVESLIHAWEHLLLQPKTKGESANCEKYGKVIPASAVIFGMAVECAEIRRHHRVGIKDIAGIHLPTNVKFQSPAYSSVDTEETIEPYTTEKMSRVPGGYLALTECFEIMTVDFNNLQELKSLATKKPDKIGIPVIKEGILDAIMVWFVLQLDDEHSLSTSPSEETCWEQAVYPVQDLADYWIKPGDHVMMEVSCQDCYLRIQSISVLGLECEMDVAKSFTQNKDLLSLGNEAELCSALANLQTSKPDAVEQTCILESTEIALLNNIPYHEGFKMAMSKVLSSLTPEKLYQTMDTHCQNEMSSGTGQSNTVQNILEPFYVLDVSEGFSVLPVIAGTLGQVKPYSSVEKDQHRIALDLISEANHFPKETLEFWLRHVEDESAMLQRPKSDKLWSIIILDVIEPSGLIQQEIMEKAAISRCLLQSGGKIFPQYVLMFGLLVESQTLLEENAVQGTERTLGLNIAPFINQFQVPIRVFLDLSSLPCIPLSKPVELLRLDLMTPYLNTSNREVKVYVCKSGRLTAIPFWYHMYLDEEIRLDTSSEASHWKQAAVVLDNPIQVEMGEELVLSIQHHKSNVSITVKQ

[2] = Selectivity ratio of human GST-fused PRMT9 to Caenorhabditis elegans GST-fused PRMT9
[3] = target: T2, Protein arginine N-methyltransferase 7 (Homo sapiens) (UniProt Q9NVM4); assay: Inhibition of human GST-fused PRMT7 expressed in Escherichia coli at 100 uM using human GST-SF3B2 (401 to 550 residues) peptide as substrate and human histone H2B as cosubstrate incubated under 15 degreeC in presence of 3H-SAM by SDS-PAGE based densitometric analysis
T2 sequence (whole entry): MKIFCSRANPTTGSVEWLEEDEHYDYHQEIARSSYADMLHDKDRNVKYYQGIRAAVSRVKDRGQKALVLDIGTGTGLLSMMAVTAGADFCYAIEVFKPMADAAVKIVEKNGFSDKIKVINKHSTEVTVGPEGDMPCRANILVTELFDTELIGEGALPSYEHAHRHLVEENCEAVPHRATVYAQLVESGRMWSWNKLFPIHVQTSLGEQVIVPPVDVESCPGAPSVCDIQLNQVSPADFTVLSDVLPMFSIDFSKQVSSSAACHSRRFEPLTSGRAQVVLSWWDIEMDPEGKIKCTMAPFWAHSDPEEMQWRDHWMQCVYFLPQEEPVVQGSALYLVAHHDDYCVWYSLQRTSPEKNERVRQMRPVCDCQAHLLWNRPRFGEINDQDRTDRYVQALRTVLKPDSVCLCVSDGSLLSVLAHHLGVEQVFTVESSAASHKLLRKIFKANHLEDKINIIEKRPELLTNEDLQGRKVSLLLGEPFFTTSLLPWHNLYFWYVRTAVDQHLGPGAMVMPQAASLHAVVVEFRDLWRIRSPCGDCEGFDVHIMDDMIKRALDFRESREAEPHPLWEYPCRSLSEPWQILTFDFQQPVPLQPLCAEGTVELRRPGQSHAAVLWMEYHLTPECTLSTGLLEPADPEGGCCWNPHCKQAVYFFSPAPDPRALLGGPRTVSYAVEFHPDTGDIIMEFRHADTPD

[4] = target: T1, Protein arginine N-methyltransferase 9 (Homo sapiens); assay: Inhibition of PRMT9 catalysed SF3B2 R508 methylation in human MCF7 cells upto 100 uM measured after 72 hrs by immunoblotting analysis; type: cell-based
[5] = test system: Caenorhabditis elegans; assay: (§1) Inhibition of Caenorhabditis elegans GST-fused PRMT9 expressed in Escherichia coli at 100 uM using Caenorhabditis elegans GST-SFTB2 (99 to 248 residues) peptide as substrate and human histone H2B as cosubstrate incubated under 25 degreeC in presence of 3H-SAM by SDS-PAGE based densitometric analysis relative to control
[6] = test system: Caenorhabditis elegans; assay: as §1, with “PRMT7” for “PRMT9”, “GST-SFTB-2” for “GST-SFTB2”, “15” for “25”, “analysis” for “analysis relative to control”
[7] = target: T1, Protein arginine N-methyltransferase 9 (Homo sapiens); assay: Inhibition of human GST-fused PRMT9 expressed in Escherichia coli using human GST-SF3B2 (401 to 550 residues) peptide as substrate and human histone H2B as cosubstrate under 37 degreeC in presence of 3H-SAM by SDS-PAGE based densitometric analysis; settings: dose 5-100 µM
[8] = target: T1, Protein arginine N-methyltransferase 9 (Homo sapiens); assay: Inhibition of PRMT9 catalysed SF3B2 R508 methylation in human MDA-MB-436 cells upto 100 uM measured after 72 hrs by immunoblotting analysis; type: cell-based
[9] = target: T1, Protein arginine N-methyltransferase 9 (Homo sapiens); assay: Inhibition of human GST-fused PRMT9 expressed in Escherichia coli at 100 uM using human GST-SF3B2 (401 to 550 residues) peptide as substrate and human histone H2B as cosubstrate incubated under 37 degreeC in presence of 3H-SAM by SDS-PAGE based densitometric analysis relative to control
[10] = test system: Caenorhabditis elegans; assay: as §1, with “25 to 50” for “100”; settings: dose 25-50 µM
[11] = target: T1, Protein arginine N-methyltransferase 9 (Homo sapiens); assay: Inhibition of human GST-fused PRMT9 expressed in Escherichia coli at less than 5 uM using human GST-SF3B2 (401 to 550 residues) peptide as substrate and human histone H2B as cosubstrate incubated under 37 degreeC in presence of 3H-SAM by SDS-PAGE based densitometric analysis relative to control
[12] = test system: Caenorhabditis elegans; assay: as §1, with “PRMT7” for “PRMT9”, “250” for “100”, “GST-SFTB-2” for “GST-SFTB2”, “15” for “25”
[13] = target: T1, Protein arginine N-methyltransferase 9 (Homo sapiens); assay: Inhibition of human GST-fused PRMT9 expressed in Escherichia coli at 100 uM using human GST-SF3B2 (401 to 550 residues) peptide as substrate and human histone H2B as cosubstrate incubated under 37 degreeC in presence of 3H-SAM by SDS-PAGE based densitometric analysis

inhibition [1]: inactive
SMILES: COC(=O)c1c[nH]c2ccc(NC(=O)CC(=O)Nc3ccc4[nH]cc(C(=O)OC)c4c3)cc12

inhibition [1]: inactive
SMILES: CCOC(=O)c1cc2cc(NC(=O)CNC(=O)Nc3ccc([N+](=O)[O-])cc3)ccc2[nH]1

inhibition [1]: inactive
SMILES: COC(=O)c1cc(O)c2cc(NC(=O)Nc3ccc4cc(C(=O)OC)cc(O)c4c3)ccc2c1

inhibition [1]: inactive
SMILES: O=C(CC(=O)Nc1ccc2[nH]cc(C(=O)O)c2c1)Nc1ccc2[nH]cc(C(=O)O)c2c1

inhibition [1]: inactive
SMILES: O=C(Nc1ccc2cc(C(=O)O)cc(O)c2c1)Nc1ccc2cc(C(=O)O)cc(O)c2c1

inhibition [1]: inactive
SMILES: O=C(Nc1ccc2[nH]cc(C(=O)O)c2c1)Nc1ccc2[nH]cc(C(=O)O)c2c1

Continued, compound first:

SMILES: COC(=O)c1cc(O)c2cc(NC(=O)NCCCCCNC(=N)NC[C@H]3O[C@@H](n4cnc5c(N)ncnc54)[C@H](O)[C@@H]3O)ccc2c1
Selectivity ratio [2]: 5 | inhibition [3]: Active | inhibition [4]: inactive | inhibition [5]: 100% | inhibition [6]: inactive | inhibition [7]: Dose-Dependent Effect | inhibition [8]: inactive | inhibition [9]: 100%

SMILES: COC(=O)c1cc(O)c2cc(NC(=O)NCCCNC(=N)NC[C@H]3O[C@@H](n4cnc5c(N)ncnc54)[C@H](O)[C@@H]3O)ccc2c1
inhibition [10]: 50% | inhibition [4]: inactive | inhibition [5]: 100% | inhibition [6]: inactive | inhibition [11]: 50% | inhibition [7]: Dose-Dependent Effect | inhibition [8]: inactive | inhibition [9]: 100% | inhibition [12]: 50%

SMILES: COC(=O)c1cc(O)c2cc(NC(=O)NCCCCNC(=N)NC[C@H]3O[C@@H](n4cnc5c(N)ncnc54)[C@H](O)[C@@H]3O)ccc2c1
inhibition [10]: 50% | inhibition [3]: Active | inhibition [5]: 100% | inhibition [6]: inactive | inhibition [11]: 50% | inhibition [7]: Dose-Dependent Effect | inhibition [9]: 100% | inhibition [12]: 50%

SMILES: COC(=O)c1cc(O)c2cc(NC(=O)NCCCCNC(=N)NCC[C@H]3O[C@@H](n4cnc5c(N)ncnc54)[C@H](O)[C@@H]3O)ccc2c1
inhibition [4]: inactive | inhibition [8]: inactive

SMILES: COC(=O)c1cc(O)c2cc(NC(=O)NCCCCCCCNC(=N)NC[C@H]3O[C@@H](n4cnc5c(N)ncnc54)[C@H](O)[C@@H]3O)ccc2c1
inhibition [4]: inactive | inhibition [8]: inactive

SMILES: CSC[C@H]1O[C@@H](n2cnc3c(N)ncnc32)[C@H](O)[C@@H]1O
inhibition [13]: Active

Source: ChEMBL document CHEMBL5365419, “Identification of a Protein Arginine Methyltransferase 7 (PRMT7)/Protein Arginine Methyltransferase 9 (PRMT9) Inhibitor” (J Med Chem, 2023)
